Legend:
Format in all cases: in vivo
CF-1 male albino mice = assay: Maximal Electroshock Test (MES), anticonvulsant activity
Method: Anticonvulsant activity was determined using the MES test, run according to the procedure described in detail below. Swinyard E A, Woodhead J H, White H S, Franklin M R. Experimental selection, quantification, and evaluation of anticonvulsants. In Levy R H, et al., eds. Antiepileptic Drugs. 3rd ed. New York: Raven Press, 1989:85-102.
CF-1 male albino mice (25-35 g) were fasted for 16 hours before testing. Mice were randomly selected into control and test groups, with the animals dosed with vehicle or test compound, at varying concentrations, respectively. […] Seizures were induced by trans-corneal electric shock using a 60-Hz alternating current, 50 mA, delivered for 0.2 sec. […] […] The test was complete when the entire course of the convulsion has been observed (typically, less than 1 minute after electrical stimulation), and the mice were then immediately euthanized by carbon dioxide inhalation.
Abolition of the full body tonic extensor component of the seizure was taken as the endpoint of the test. […] The ED50 value of the test compound (calculated when appropriate) was the calculated dose required to block the hind limb tonic-extensor component of the MES-induced seizure in 50% of the rodents tested. A probit analysis was used to calculate the ED50 and 95% fiducial limits (FL).
Results are listed as (number of mice with full body tonic extension prevented)/(total number of mice tested) (@ a given time).

[1] = Mice studies dosing with the compound of formula (A): plasma and brain analyses; conditions: mice dosed with the compound of formula (A)
Text: (§1) The compound of formula (A) was initially isolated from human plasma samples from clinical trials dosing with the compound of formula (S). Additionally, the compound of formula (A) is a pro-drug of the compound of formula (S).

[2] = Human plasma samples from clinical trials dosing with the compound of formula (S)
Text: and pharmaceutically acceptable salts thereof.
as §1

Row | Structure (SMILES) | MES Activity, (number of mice with full body tonic extension prevented)/(total number of mice tested) (CF-1 male albino mice; 200 mg/kg po, 0.50 Hrs) | MES Activity, (number of mice with full body tonic extension prevented)/(total number of mice tested) (CF-1 male albino mice; 200 mg/kg po, 1.0 Hrs) | MES Activity, (number of mice with full body tonic extension prevented)/(total number of mice tested) (CF-1 male albino mice; 200 mg/kg po, 2 Hrs) | MES Activity, (number of mice with full body tonic extension prevented)/(total number of mice tested) (CF-1 male albino mice; 200 mg/kg po, 3 Hrs) | MES Activity, (number of mice with full body tonic extension prevented)/(total number of mice tested) (CF-1 male albino mice; 200 mg/kg po, 6 Hrs) | plasma and brain levels of compound (A) and compound (S) after dosing (pro-drug conversion) [1] | MES Activity, (number of mice with full body tonic extension prevented)/(total number of mice tested) (CF-1 male albino mice; 150 mg/kg po, 3 Hrs) | metabolite found in human plasma [2]
1 | CC(=O)NS(=O)(=O)NC[C@H]1COc2cc(Cl)ccc2O1 [Compound (A), (2S)-(−)-N′-acetyl-N-(6-chloro-2,3-dihydro-benzo[1,4]dioxin-2-ylmethyl)-sulfamide] | 0/5 | 1/5 | 4/5 | 5/5 | 2/5 | levels of the compound of formula (S) higher than those of the compound of formula (A) |  | 
2 | NS(=O)(=O)NC[C@H]1COc2cc(Cl)ccc2O1 [Compound (S), (2S)-(−)-N-(6-chloro-2,3-dihydro-benzo[1,4]dioxin-2-ylmethyl)-sulfamide, reference compound] |  |  |  |  |  |  | 5/5 | The compound of formula (A) is a human metabolite of the compound of formula (S)
